Literature values, collected in paper PMC5228037, “Discovery and Mechanistic Characterization of Selective Inhibitors of H2S-producing Enzyme: 3-Mercaptopyruvate Sulfurtransferase (3MST) Targeting Active-site Cysteine Persulfide” (Scientific Reports, 2017).

How the values were obtained:
3MST = settings: cited from earlier work; for Inhibition constant Ki for 3MST: substrate-like inhibitors
[1] = design: method as in PMID 26269587; settings: cited from earlier work

Compound | Inhibition constant Ki for 3MST (3MST) | further results
O=C(O)CCS [3-mercaptopropionic acid] | several | 
N[C@@H](CSS)C(=O)O [cysteine persulfide] |  | calculated pKa [1]: 4.34
O=C(O)C(=O)CS [3MP, 3-mercaptopyruvate] |  | Km (3MST; substrate, read-out: Michaelis constant Km for 3MST): 4.08 mM
CC(=O)C(=O)O [pyruvate] | several | 
